Results as given in US20260337661A1, “BIOMARKERS OF THE INTEGRATED STRESS RESPONSE AND USES THEREOF” (Calico Life Sciences LLC, priority 2023, published 2026).

Tests used:
[1] = test system: ISR signature genes, including Atf5, Eif4ebp1 and Trib3; details: previously shown; cited from earlier work
GDF15 [2] = test: GDF15 mRNA levels in the CNS (cerebellum, spinal cord) of VWM mice treated with 2BAct; type: in vivo, mouse; details: cerebellum and spinal cord, FIGS. 2C and 2D
Experimental: (§1) FIGS. 2A and 2B depict gene expression of the ISR signature and GDF15 in the cerebellum (FIG. 2A) and spinal cord (FIG. 2B) of VWM mice and WT mice following 4 months of treatment with 30 mg/kg 2BAct in food pellets or control chow. Samples were also collected after a drug washout period of 2 months.
FIG. 2C and FIG. 2D show GDF15 mRNA levels determined in cerebellum (FIG. 2C) and spinal cord (FIG. 2D) in WT mice, VWM mice, and VWM mice treated with 2BAct for 4 months and 2 months after cessation of 2BAct treatment. *p<0.05, **p<0.01, ***p<0.001 by Mann Whitney.
(§2) In this example, a VWMD mouse model harboring a R191H mutation in eIF2B was used.
(§3) VWM mice and WT mice were treated with 2BAct at 30 mg/kg for four months in food pellets. Subsequently, expressions of ISR signature genes and GDF15 in the cerebellum were determined.

GDF15 [3] = test: GDF15 protein in astrocyte-derived exosomes (ADE) and neuron-derived exosomes (NDE) in plasma of VWM mice (immunoassay); type: in vivo, mouse
Experimental: GDF15 protein was quantified in astrocyte-derived exosomes (ADEs) or neuron-derived exosomes (NDEs) in plasma using immunoassay. ADEs and NDEs were captured with anti-GLAST antibody and anti-SNAP25 antibody, respectively. GLAST is an astrocyte specific cell-surface protein; SNAP25 is highly expressed on neuronal membrane. The detection of GDF15 was performed by incubation with a specific anti-GDF15 antibody followed by an anti-mouse IgG conjugated to Horseradish peroxidase.

GDF15 [4] = test: GDF15 protein levels in CSF and plasma of VWM mice treated with 2BAct; type: in vivo, mouse
Experimental: FIG. 2E and FIG. 2F show GDF15 protein levels determined in CSF (FIG. 2E) and plasma (FIG. 2F) in WT mice, VWM mice, and VWM mice treated with 2BAct for 4 months and 2 months after cessation of 2BAct treatment. *p<0.05, **p<0.01, ***p<0.001 by Mann Whitney.
as §2, §3

[5] = previously shown; cited from earlier work
ISR signature genes = test: Gene expression of the ISR signature in cerebellum and spinal cord of VWM mice treated with 2BAct; type: in vivo, mouse; details: 30 mg/kg in food pellets, four months
Experimental: as §1, §2, §3

O=C(COc1ccc(Cl)c(F)c1)NC12CC(NC(=O)c3cnc(C(F)F)cn3)(C1)C2 [Compound 2BAct]
ISR signature genes, including Atf5, Eif4ebp1 and Trib3, in the brain [1]: suppress the ISR signature genes
GDF15 mRNA levels in the CNS following treatment (GDF15 [2]; 30 mg/kg in food pellets, four months): markedly reduced
GDF15 mRNA levels in the CNS after cessation of treatment (GDF15 [2]; 2 months after cessation of 4-month treatment): rebounded to pre-treatment levels
GDF15 expression in plasma ADE (GDF15 [3]; 30 mg/kg for 10 days, FIG. 7A): suppressed GDF15 expression in plasma ADE and NDE to the level present in WT mice
GDF15 expression in plasma NDE (GDF15 [3]; 30 mg/kg for 10 days, FIG. 7B): suppressed GDF15 expression in plasma ADE and NDE to the level present in WT mice
downmodulation of GDF15 expression on VWM ADE (GDF15 [3]; astrocyte derived exosomes, FIG. 7A): 2.7 fold
downmodulation of GDF15 expression on VWM NDE (GDF15 [3]; neuron derived exosomes, FIG. 7B): 1.7 fold
CSF GDF15 levels after treatment (GDF15 [4]; 30 mg/kg in food pellets, 4-month treatment, FIG. 2E): suppressed
plasma GDF15 (GDF15 [4]; 30 mg/kg in food pellets, four months, FIG. 2F): did not affect plasma GDF15
CSF GDF15 levels following drug washout (GDF15 [4]; 2 months of drug washout after 4-month treatment, FIG. 2E): returned to pre-dose baseline levels
motor deficit [5]: corrected motor deficit
ISR gene expression signature in the cerebellum (ISR signature genes; FIG. 2A): inhibited the ISR gene expression signature
ISR gene expression signature in the spinal cord (ISR signature genes; FIG. 2B): inhibited the ISR gene expression signature
